Values joined by “and” are separate entries in the source; they are usually repeats but may differ in a detail not shown here. Equal values may be shown once.
Columns and labels:
[1] = test system: Rattus norvegicus; assay: Tested for the change in systolic blood pressure administered at 50 ug/kg intravenously in anesthetized rats; format: functional, Artery
[2] = test system: Rattus norvegicus; assay: Change in respiratory frequency administered at 6400 ug/kg iv in anesthetized rats; format: functional
[3] = test system: Rattus norvegicus; assay: Change in respiratory frequency administered at 3200 ug/kg iv in anesthetized rats; format: functional
[4] = test system: Rattus norvegicus; assay: Maximum rate of rise of the left ventricular isovolumetric pressure (dP/dt) administered at 6400 ug/kg iv in anesthetized rats; format: functional, Heart left ventricle
[5] = test system: Rattus norvegicus; assay: Maximum rate of rise of the left ventricular isovolumetric pressure administered at 100 ug/kg iv in anesthetized rats in presence of spinalization under vagotomy; format: functional, Heart left ventricle
[6] = test system: Rattus norvegicus; assay: Maximum rate of rise of the left ventricular isovolumetric pressure (dP/dt) administered at 800 ug/kg iv in anesthetized rats; format: functional, Heart left ventricle
[7] = test system: Rattus norvegicus; assay: Tested for the change in diastolic blood pressure administered at 3200 ug/kg iv in anesthetized rats in presence of propranolol (3 mg/kg); format: functional, Artery
[8] = test system: Rattus norvegicus; assay: Maximum rate of rise of the left ventricular isovolumetric pressure (dP/dt) administered at 100 ug/kg iv in anesthetized rats; format: functional, Heart left ventricle
[9] = test system: Rattus norvegicus; assay: Maximum rate of rise of the left ventricular isovolumetric pressure administered at 800 ug/kg iv in anesthetized rats in presence of […] (3 mg/kg) (p<0.05); format: functional, Heart left ventricle
[10] = test system: Rattus norvegicus; assay: Tested for the change in diastolic blood pressure administered at 50 ug/kg intravenously in anesthetized rats; format: functional, Artery
[11] = test system: Rattus norvegicus; assay: Tested for the change in systolic blood pressure administered at 6400 ug/kg intravenously in anesthetized rats; format: functional, Artery
[12] = test system: Rattus norvegicus; assay: Tested for change in systolic blood pressure administered at 4.12 uM/kg iv in anesthetized rats; format: functional, Artery
[13] = test system: Rattus norvegicus; assay: Maximum rate of rise of the left ventricular isovolumetric pressure (dP/dt) administered at 3200 ug/kg iv in anesthetized rats; format: functional, Heart left ventricle
[14] = test system: Rattus norvegicus; assay: Tested for the change in systolic blood pressure administered at 800 ug/kg intravenously in anesthetized rats in presence of hexamethonium (5 mg/kg) (p<0.05); format: functional, Artery
[15] = test system: Rattus norvegicus; assay: Change in heart rate administered at 3200 ug/kg iv in anesthetized rats in presence of propranolol (3 mg/kg) (p<0.05); format: functional
[16] = test system: Rattus norvegicus; assay: Change in heart rate administered at 3200 ug/kg iv in anesthetized rats in presence of spinalization under vagotomy (p<0.05); format: functional
[17] = test system: Rattus norvegicus; assay: Tested for the change in systolic blood pressure administered at 100 ug/kg intravenously in anesthetized rats in presence of spinalization under vagotomy; format: functional, Artery
[18] = test system: Rattus norvegicus; assay: Change in heart rate administered at 800 ug/kg iv in anesthetized rats in presence of hexamethonium (5 mg/kg) (p<0.05); format: functional
[19] = test system: Rattus norvegicus; assay: Tested for the change in systolic blood pressure administered at 100 ug/kg iv in anesthetized rats in presence of spinalization under vagotomy; format: functional, Artery
[20] = test system: Rattus norvegicus; assay: Change in heart rate administered at 1600 ug/kg iv in anesthetized rats in presence of propranolol (3 mg/kg) (p<0.05); format: functional
[21] = test system: Rattus norvegicus; assay: Change in respiratory frequency administered at 50 ug/kg iv in anesthetized rats; format: functional
[22] = test system: Rattus norvegicus; assay: Maximum rate of rise of the left ventricular isovolumetric pressure administered at 1600 ug/kg iv in anesthetized rats in presence of […] (3 mg/kg) (p<0.05); format: functional, Heart left ventricle
[23] = test system: Rattus norvegicus; assay: Tested for the change in systolic blood pressure administered at 800 ug/kg intravenously in anesthetized rats in presence of phentolamine (2 mg/kg); format: functional, Artery
[24] = test system: Rattus norvegicus; assay: Tested for the change in systolic blood pressure administered at 400 ug/kg intravenously in anesthetized rats; format: functional, Artery
[25] = test system: Rattus norvegicus; assay: Tested for the change in systolic blood pressure administered at 3200 ug/kg intravenously in anesthetized rats in presence of phentolamine (2 mg/kg); format: functional, Artery
[26] = test system: Rattus norvegicus; assay: Maximum rate of rise of the left ventricular isovolumetric pressure administered at 6400 ug/kg iv in anesthetized rats in presence of hexamethonium (5 mg/kg) (p<0.05); format: functional, Heart left ventricle
[27] = test system: Rattus norvegicus; assay: Tested for the change in systolic blood pressure administered at 6400 ug/kg intravenously in anesthetized rats in presence of propranolol (3 mg/kg); format: functional, Artery
[28] = test system: Rattus norvegicus; assay: Tested for the change in diastolic blood pressure administered at 3200 ug/kg iv in anesthetized rats in presence of phentolamine (2 mg/kg); format: functional, Artery
[29] = test system: Rattus norvegicus; assay: Maximum rate of rise of the left ventricular isovolumetric pressure administered at 3200 ug/kg iv in anesthetized rats in presence of phentolamine (2 mg/kg); format: functional, Heart left ventricle
[30] = test system: Rattus norvegicus; assay: Tested for the change in diastolic blood pressure administered at 1600 ug/kg iv in anesthetized rats in presence of hexamethonium (5 mg/kg) (p<0.05); format: functional, Artery
[31] = test system: Rattus norvegicus; assay: Tested for the change in systolic blood pressure administered at 200 ug/kg iv in anesthetized rats in presence of spinalization under vagotomy; format: functional, Artery
[32] = test system: Rattus norvegicus; assay: Tested for the change in diastolic blood pressure administered at 200 ug/kg intravenously in anesthetized rats; format: functional, Artery
[33] = test system: Rattus norvegicus; assay: Tested for the change in systolic blood pressure administered at 3200 ug/kg intravenously in anesthetized rats; format: functional, Artery
[34] = test system: Rattus norvegicus; assay: Tested for the change in systolic blood pressure administered at 800 ug/kg intravenously in anesthetized rats in presence of propranolol (3 mg/kg); format: functional, Artery
[35] = test system: Rattus norvegicus; assay: Maximum rate of rise of the left ventricular isovolumetric pressure administered at 3200 ug/kg iv in anesthetized rats in presence of […] (3 mg/kg) (p<0.05); format: functional, Heart left ventricle
[36] = test system: Rattus norvegicus; assay: Maximum rate of rise of the left ventricular isovolumetric pressure (dP/dt) administered at 50 ug/kg iv in anesthetized rats; format: functional, Heart left ventricle
[37] = test system: Rattus norvegicus; assay: Tested for the change in diastolic blood pressure administered at 800 ug/kg iv in anesthetized rats in presence of hexamethonium (5 mg/kg) (p<0.05); format: functional, Artery
[38] = test system: Rattus norvegicus; assay: Change in respiratory frequency administered at 100 ug/kg iv in anesthetized rats; format: functional
[39] = test system: Rattus norvegicus; assay: Change in heart rate administered at 6400 ug/kg iv in anesthetized rats in presence of propranolol (3 mg/kg) (p<0.05); format: functional
[40] = test system: Rattus norvegicus; assay: Tested for change in diastolic blood pressure administered at 4.12 uM/kg iv in anesthetized rats; format: functional, Artery
[41] = test system: Rattus norvegicus; assay: Tested for the change in diastolic blood pressure administered at 1600 ug/kg iv in anesthetized rats in presence of propranolol (3 mg/kg); format: functional, Artery
[42] = test system: Rattus norvegicus; assay: Tested for the change in systolic blood pressure administered at 3200 ug/kg iv in anesthetized rats in presence of spinalization under vagotomy (p<0.05); format: functional, Artery
[43] = test system: Rattus norvegicus; assay: Maximum rate of rise of the left ventricular isovolumetric pressure administered at 800 ug/kg iv in anesthetized rats in presence of hexamethonium (5 mg/kg) (p<0.05); format: functional, Heart left ventricle

## COc1ccc(/C=C/C(=O)NCCCC/N=C(\N)NCC=C(C)C)cc1OC
[1]
  Blood pressure: -4 mmHg and -5%
[2]
  Frequency: -87 beats min-1 and -80%
[3]
  Frequency: -41 beats min-1 and -39%
[4]
  BP: 58%
  dp/dt: 3074 mmHg s-1
[5]
  dp/dt: 0 mmHg s-1
[6]
  BP: 41%
  dp/dt: 2140 mmHg s-1
[7]
  Blood pressure: -26 mmHg
[8]
  BP: 3%
  dp/dt: 141 mmHg s-1
[9]
  dp/dt: 415 mmHg s-1
[10]
  Blood pressure: -5 mmHg and -8%
[11]
  Blood pressure: -34 mmHg and -40%
[12]
  Blood pressure: -21 mmHg
[13]
  BP: 55%
  dp/dt: 2984 mmHg s-1
[14]
  Blood pressure: -5 mmHg
[15]
  Heart rate: 9 beats min-1
[16]
  Heart rate: 3 beats min-1
[17]
  Blood pressure: 0 mmHg
[18]
  Heart rate: 5 beats min-1
[19]
  Blood pressure: 0 mmHg
[20]
  Heart rate: 7 beats min-1
[21]
  Frequency: 6 beats min-1 and 6%
[22]
  dp/dt: 520 mmHg s-1
[23]
  Blood pressure: -22 mmHg
[24]
  Blood pressure: -15 mmHg and -18%
[25]
  Blood pressure: -37 mmHg
[26]
  dp/dt: 1447 mmHg s-1
[27]
  Blood pressure: -35 mmHg
[28]
  Blood pressure: -39 mmHg
[29]
  dp/dt: 2627 mmHg s-1
[30]
  Blood pressure: -9 mmHg
[31]
  Blood pressure: 0 mmHg
[32]
  Blood pressure: -10 mmHg and -16%
[33]
  Blood pressure: -25 mmHg and -29%
[34]
  Blood pressure: -18 mmHg
[35]
  dp/dt: 760 mmHg s-1
[36]
  BP: 1%
  dp/dt: 52 mmHg s-1
[37]
  Blood pressure: -6 mmHg
[38]
  Frequency: 9 beats min-1 and 8%
[39]
  Heart rate: 11 beats min-1
[40]
  Blood pressure: -18 mmHg
[41]
  Blood pressure: -20 mmHg
[42]
  Blood pressure: -8 mmHg and -12 mmHg
[43]
  dp/dt: 890 mmHg s-1
